Reference: patent US11064704B2, “Natural product formulations with improved residual insect repellent/deterrent activity” (University of Mississippi, priority 2016, dated 2021)

Tests used:
mosquitoes = assay: in vivo direct skin application bioassay
Procedure: Direct skin application bioassays were conducted by using a powder-free latex glove (Diamond Grip, Microflex Corporation, Reno, Nev.). An opening of 3×4 cm was cut through the glove to fit on dorsal surface of the hand (FIG. 1). After wearing the glove, a wristband was used to avoid the biting on the hand near the border of the glove. Approximately, 500 (±5%), consisting primarily of females were transferred to a test cage (45×45×45 cm) using an aspirator. A series of dosages were tested to determine MED for repellency as well as residual activity against mosquitoes. A single test consisted of covering the hand of a volunteer with a powder-free latex glove and treating 12 cm^2 surface area, cut through the glove, on dorsal surface of the hand. Marked skin surface area was treated with the test compound in 50 μl of total volume. Because of constrain of man power, only one volunteer who was provided with a written informed consent participated in this study. A protocol approved by the University of Mississippi Human Use Institutional Review Board (IRB protocol #15-070) was followed.
The test started when the hand treated (3×4 cm area cut through the glove on the dorsal surface) with a test compound was inserted into the mosquito cage. […] Any treatment with […] females biting during 1 min test period was considered as “passed” whereas a treatment with ≥5 bites out of 500 mosquitoes was considered as “failed”. In case of passing the next lower and in case of failure next higher serial dose was tested to reach MED. Additionally, data on the residual repellent activity was recorded by exposing the treatments to the females after every 30 minutes until the treatment failed. Carrot essential oil, carotol and DEET and the mixtures were tested.
Direct skin application bioassays were conducted by using a powder-free latex glove (Diamond Grip™, Microflex Corporation, Reno, Nev.). An opening of 3×4 cm was cut through the glove to fit on the dorsal surface of the hand. After donning the glove, a wristband was used to avoid biting on the hand near the border of the glove. Approximately 500 (±5%) mosquitoes, consisting primarily of females, were transferred to a test cage (45×45×45 cm) using an aspirator. A series of dosages were tested to determine MED for repellency as well as residual activity against mosquitoes.
A single test consisted of covering the hand of a volunteer with a powder-free latex glove and treating a 12 cm^2 surface area, cut through the glove, on the dorsal surface of the hand. Marked skin surface area was treated with the test compound in 50 μl of total volume. Because of constraints of man power, only one volunteer who was provided with a written informed consent participated in this study. A protocol approved by the University of Mississippi Human Use Institutional Review Board (IRB Protocol #15-070) was followed.
The test started when the hand treated (3×4 cm area cut through the glove on the dorsal surface) with a test compound was inserted into the mosquito cage. […] Any treatment with ≤5 females biting during the 1 min test period was considered as “passed”, whereas a treatment with ≥5 bites out of 500 mosquitoes was considered as “failed”. In case of passing, the next lower, and in case of failure, the next higher, serial dose was tested to reach MED. Additionally, data on the residual repellent activity were recorded by exposing the treatments to the females after every 30 minutes until the treatment failed. Carrot seed essential oil, carotol, geranium and lemon Eucalyptus essential oils, DEET, picaridin and the mixtures were tested.

Aedes aegypti females [1] = details: literature values; cited from earlier work
Aedes aegypti females [2] = assay: in vitro A&K (Ali and Khan) repellent bioassay; type: in vivo; details: for residual repellent activity: time post treatment within range of MED: 11.7 μg/cm^2; for residual repellent activity: time post treatment up to which active / after which MED limit crossed: 23.4 μg/cm^2
Source text: (§1) The A&K (Ali and Khan) bioassay system is based on the concept that the mosquitoes are attracted to warm temperatures, and this system uses warm temperature to serve as stimulus for landing and feeding. The details of the A&K bioassay systems are given in Ali et al. (2017).
(§2) In summary, this in vitro system consisted of a 30×30×30 cm collapsible aluminum cage (Model 1450B, BioQuip Products, 2321 Gladwick Street, Rancho Dominguez, Calif. 90220, USA) with metal screens. On one panel of the cage, metal screen was replaced with a clear acrylic transparent sheet. […] The blood box had three sides covered with acrylic sheet while the front side was open to insert the feeding device. […] The sliding door served to contain the females inside the cage when the feeding device was pulled out for loading the treatment. This door was slid open when the feeding device was pushed in during the bioassay to expose the females to the treatment.
(§3) The feeding device had one 3×4 cm rectangular reservoir that contained the feeding solution. The feeding device was connected to the water circulator. The reservoir of the feeding device with feeding solution was covered with a chemical treated collagen sheet. To observe the landing and feeding of female mosquitoes, feeding solution in the reservoir was heated to match the human body temperature using a water circulator which was set at 37° C. The feeding solution had 3-4° C. higher temperature than the solid platform, and this increased temperature of the feeding solution became a better source of attraction and preference for the mosquitoes than the other parts of the feeding device.
(§4) The rectangular reservoir of the feeding device was filled with the CPDA 1+ATP solution having a few drops of green fluorescent traceable water-soluble dye to serve as a feeding source. A test was started when the 3×4 cm marked areas of collagen were treated with the desired chemical in a volume of 50 μL/[…]. The treated collagen sheet was then secured on the reservoir using a thin layer of high vacuum grease (Dow Corning Corporation, Midland, Mich. 48686). The feeding device was then pushed into the blood box and the sliding door was opened to expose females to the treatment.
(§5) Stock solutions were made in ethanol. All the dilutions were made in EtOH and applied in a volume of 50 μL covering […] of the collagen sheet. Minimum effective dosage (MED) values in this in vitro bioassay were determined using a method described by Katritzky et al. (2010).
(§6) The cage contained 200±10, 8-18 day old female mosquitoes. The number of mosquitoes landing and biting were recorded visually for 1 minute. Three or four cages were used at a time, and one treatment was evaluated in a single cage. The minimum dose at which 2 or less mosquitoes (i.e. less than or equal to 1% of 200 females in the cage) started feeding in 1 minute was the minimum effective dose (“MED”). Continuous exposure of the mosquitoes in the cage can result in reduced landing and biting, therefore, 3-4 cages were used and only one replication was completed for each chemical in a single cage. To ensure accuracy of the treatment, rectangular areas of (3×4 cm (12 cm^2) or 7.5×4 cm (30 cm^2) were marked on the collagen that matched the measurement of the rectangular liquid reservoirs. Treatments were applied in a volume of 50 μL (12 cm^2 area) or 107 μL (30 cm^2 area). Treated collagen sheets were secured on a feeding reservoir containing CPDA-1+ATP solution using a thin layer of grease (Dow Corning Corp, Midland, Mich.). The feeding device was pushed inside the blood box and the sliding door was […] to expose the females to the treatment.
(§7) To ensure the normal activity (≥10% landing), control treatment was repeated after every 5 replications, and the bioassay was stopped if the response was less than the control. The data is presented as MED values with the mean percentage biting (±SEM) in parenthesis. […]

[3] = tested on: Anopheles quadrimaculatus mosquitoes; assay: in vitro A&K (Ali and Khan) repellent bioassay; type: in vivo; details: compared with DEET
Source text: as §1, §2, §3, §4, §5, §6, §7

[4] = 12 cm^2 surface area, Table 7/FIG. 7
[5] = Table 13/FIG. 13, mixtures 6.25+6.25 μg/cm^2 versus individual applications, species not given

| Structure (SMILES) | residual activity: time post application at which MED level crossed (mosquitoes; 1% rate of application) [h] | residual activity: time post application at which MED level crossed (mosquitoes; 2% rate of application) [h] | MED values reported by Ali et al. (2012) and Katritzky et al. (2010) (Aedes aegypti females [1]) [μg/cm^2] | residual repellent activity: time post treatment within range of MED (Aedes aegypti females [2]) | residual repellent activity: time post treatment up to which active / after which MED limit crossed (Aedes aegypti females [2]) [min] | minimum effective dose (MED) (Aedes aegypti females [2]; [4]) [μg/cm^2] | minimum effective dose (MED) (Aedes aegypti females [2]; [5]) [μg/cm^2] | residual activity: time post application at which MED reached (mosquitoes; 8% application rate) [h] | residual activity: time post application at which MED reached/crossed (mosquitoes; 12.5% application rate) [h] | residual activity: time post application at which MED reached (mosquitoes; 25% application rate) [h] | residual activity: time post application at which MED reached (mosquitoes; 50% application rate) [h] | residual repellent activity: time post treatment up to which active (Aedes aegypti females [2]; 46.9 μg/cm^2) [min] | repellent activity (Aedes aegypti females [2]; compared with DEET) | repellent activity [3] |
| --- | --- | --- | --- | --- | --- | --- | --- | --- | --- | --- | --- | --- | --- | --- |
| CCN(CC)C(=O)c1cccc(C)c1 [DEET, N,N-diethyl-meta-toluamide, reference compound] | 1 | 1 | 9 | 30 min | 120 | 11.7 | 25 | – | – | – | – | – | – | – |
| CC1=CC[C@]2(C)CC[C@@H](C(C)C)[C@]2(O)CC1 [carotol] | – | – | – | failed | 60 | 11.7 | 25 | 1.5 | 1.5 | 2 | 2.5 | 120 | comparable to DEET | comparable to DEET |
